Source: US9096829B2, “Human mast cell line and uses thereof” (UNIVERSITY OF SOUTH FLORIDA, priority 2009, dated 2015)

Assays:
Type in all cases: cell-based, human
USF-MC1 cells [1] = assay: Beta-hexosaminidase (histamine) release from USF-MC1 mast cells
Procedure: (§1) FIGS. 3A-D show graphs of histamine (beta hexosaminidase) release from USF-MC1 cells compared to LAD2 cells after one hour (FIGS. 3A and 3B, respectively), and after six hours (FIGS. 3D and 3C, respectively). USF-MC1 cells (2×10^6 per well) were coated with biotinylated human myeloma IgE for 18 hours. Cells were then washed and challenged with streptavidin (100 ng/ml), ionomycin (5 μM), ANP (1 μM), ANP+KP2, ANP+Isatin. After 30 minutes, supernatants and cell lysates were developed with […] and optical density (OD) was read at 405 nm. Percent release is expressed as a ratio of supernatant over total (supernatant+lysate). […] In addition, ANP-induced histamine release is attenuated by an NPRA receptor antagonist (isatin).
In order to activate mast cells via the FceR1 receptor, cells were cultured for 18 hours with biotinylated human myeloma IgE (100 ng/ml)(Sigma). Cells were then challenged with streptavidin (100 ng/ml)(Sigma), ionomycin (5 μM), or atrial natriuretic peptide (ANP) (100 ng/ml). After 30 minutes, supernatants and cell pellets were harvested. Substrate solution (p-Nitrophenyl-N-acetyl-B-D-glucosaminide Calbiochem, 0.13% in sodium citric solution) was added to either the cell supernatants or pellets and incubated for 1.5 hr. 0.4M glycine solution was then added to stop the reaction. The optical density (OD) was read at 405 nm. Percent release was expressed as a ratio of supernatant over total (supernatant+lysate). Percent release of beta-hexosadminidase by SV40 LT-transfected USF-MC1 cells and non-transfected USF-MC1 cells is shown in FIG. 5C.
USF-MC1 cells (2×10^6 per well) were coated with biotinylated human myeloma IgE for 18 hours. Cells were then washed and challenged with streptavidin (100 ng/ml), ionomycin (5 μM), ANP (1 μM), ANP+KP2, ANP+Isatin. After 30 minutes, supernatants and cell lysates were developed with […] and optical density (OD) was read at 405 nm. Percent release is expressed as a ratio of supernatant over total (supernatant+lysate). […]

LAD2 cells [2] = assay: Beta-hexosaminidase (histamine) release from LAD2 mast cells; details: ANP challenge plus isatin
Procedure: as §1
In order to activate mast cells via the FceR1 receptor, cells were cultured for 18 hours with biotinylated human myeloma IgE (100 ng/ml)(Sigma). Cells were then challenged with streptavidin (100 ng/ml)(Sigma), ionomycin (5 μM), or atrial natriuretic peptide (ANP) (100 ng/ml). After 30 minutes, supernatants and cell pellets were harvested. […] The optical density (OD) was read at 405 nm. Percent release was expressed as a ratio of supernatant over total (supernatant+lysate). […]

USF-MC1 cells [3] = assay: Leukotriene C4 release (ELISA) from USF-MC1 mast cells; details: ANP challenge plus isatin
Procedure: (§2) TNF-a (R&G Systems), IL-17 (eBioscience), and Leukotrine C4 (Cayman Chemical) protein concentrations in mast cell supernatants were determined using ELISA kits from each respective manufacturer. Each ELISA was performed according to the manufacturer's instructions.

LAD2 cells [4] = assay: Leukotriene C4 release (ELISA) from LAD2 mast cells; details: ANP challenge plus isatin
Procedure: as §2

SMILES | histamine (beta hexosaminidase) release after challenge (USF-MC1 cells [1]; ionomycin 5 μM or ANP 1 μM, 30 minutes) | effect on ANP-induced histamine release (USF-MC1 cells [1]; ANP 1 μM + isatin, 30 minutes) | effect on ANP-induced release of B-Hex (USF-MC1 cells [1]; ANP challenge plus isatin) | effect on ANP-induced release of B-Hex (LAD2 cells [2]) | effect on ANP-induced release of LTC4 (USF-MC1 cells [3]) | effect on ANP-induced release of LTC4 (LAD2 cells [4])
C[C@H](CCC(=O)O)C[C@H](C)C[C@H](C)C(=O)/C=C(\O)[C@H](C)C[C@H](C)C/C=C/[C@@H](C)[C@@H](O)[C@@H](C)[C@@H](O)C[C@@H]1CC[C@@](C)([C@H]2CC[C@@](C)([C@@H](C)O)O2)O1 [ionomycin] | releases histamine within minutes | – | – | – | – | –
O=C1Nc2ccccc2C1=O [isatin] | – | attenuated | reduced to baseline | reduced to baseline | reduced to baseline | reduced to baseline
